Source: paper PMC3679140, “Synthesis of Indole Derived Protease-Activated Receptor 4 Antagonists and Characterization in Human Platelets” (PLoS ONE, 2013)

Experiments:
[1] = system: thrombin mediated platelet GPIIbIIIa activation; assay: Flow cytometry: thrombin mediated GPIIbIIIa activation in washed platelets; assay type: cell-based, human; conditions: for Addition of the effect of RWJ-56110 on thrombin and the effect of the compound on PAR1-AP: sum of separate inhibitory effects, 1 µM compound, 10 µM RWJ-56110
Procedure: (§1) Briefly, 60 µL of washed platelets at a concentration of 1.5×10^7 platelets/mL were added to polystyrene tubes. Anti-CD62P antibody or PAC-1 antibody were diluted (per manufacturer protocol) in Tyrode’s buffer containing 0.1% BSA. 40 µL of diluted antibody was added to the platelets and allowed to bind for 5 minutes. Platelets were pre-treated with indicated concentrations of antagonist or DMSO control for 5 minutes followed by addition of PAR1-AP or PAR4-AP for 10 minutes. Platelet activity was quenched by the addition ice cold 1.5% paraformaldehyde followed by dilution in 1X phosphate buffered saline. The final DMSO concentration was 0.5%. Platelets were stored up to 18 hours at 4°C before flow cytometric analysis. Analysis was carried out on a BD FACS Canto II (Franklin Lakes, NJ). Fluorescent intensity was determined for 100,000 events within the platelet gate. Data was collected and analyzed via FACS DiVa software.
(§2) 100% max response was determined for each individual as the DMSO treated control stimulated with either 200 µM PAR4-AP, 20 µM PAR1-AP, or 10 nM thrombin. Samples treated with antagonist were normalized as a percentage of the DMSO treated control. Normalized data was plotted in GraphPad PRISM v.5.0. Dose response curves and subsequent IC50 values were generated using the ‘log(inhibitor) vs. response variable slope’ parameter. Data plotted is mean±S.E.M. or mean±S.D.

PAR4 [2] = target: T1, PAR4 (Homo sapiens, UniProt Q96RI0); assay: High-throughput platelet calcium mobilization assay (PAR4-AP stimulated); assay type: cell-based; conditions: for Emax at 10 µM: 10 µM compound 6 min prior to 80 µM PAR4-AP, Figure 2D, read-out: PAR4 mediated platelet calcium mobilization, percent of the maximum response
T1 construct: Human platelets express both PAR1 and PAR4; endogenous in cells; host or cells: washed human platelets from volunteer donors
T1 sequence (Q96RI0 18-385): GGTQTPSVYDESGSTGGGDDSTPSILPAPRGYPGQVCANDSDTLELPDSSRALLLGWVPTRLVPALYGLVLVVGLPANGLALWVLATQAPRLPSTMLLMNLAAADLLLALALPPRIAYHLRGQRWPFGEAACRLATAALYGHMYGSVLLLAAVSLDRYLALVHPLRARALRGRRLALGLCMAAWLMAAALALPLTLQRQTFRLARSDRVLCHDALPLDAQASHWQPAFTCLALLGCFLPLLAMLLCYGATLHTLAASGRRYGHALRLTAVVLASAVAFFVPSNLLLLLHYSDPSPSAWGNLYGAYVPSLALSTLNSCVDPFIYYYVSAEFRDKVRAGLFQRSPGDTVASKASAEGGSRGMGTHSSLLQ
Procedure: Washed human platelets were prepared via standard procedure and suspended in Tyrode’s buffer containing 0.1% BSA. Platelets were dye loaded for 1 hour with Fluo4-AM in calcium assay buffer (1X HBSS without calcium or magnesium, 20 mM HEPES, 2.5 mM probenecid, 1 mM EGTA, 0.1% BSA). The calcium assay buffer containing dye is mixed with platelets to yield a final concentration of 2.5 µg/mL Fluo4-AM and 1.0×10^8 platelets/mL. 60 µL of dye loaded platelets were added to each well of a NUNC 384 well plate black optical bottom plate (Thermo, Rochester, NY). Fluorescence measurements were recorded on a Functional Drug Screening System (FDSS) 6000, Hamamatsu (Hamamatsu, Japan) at 37°C. […] Compounds were injected by the FDSS and occurred simultaneously across each plate. Experiments reported were performed in triplicate, on the same plate, from the indicated number of donors. 480∶540 (ex:em) was measured each second for a total of 12 minutes. The final concentration of DMSO in the assay was 0.5%.
The difference between basal (defined as t0) and maximal relative fluorescence unit (RFU) values (ΔRFUs) for ex:em 480∶540 was determined for each well. The triplicate ΔRFU for DMSO treated control wells stimulated with 80 µM PAR4-AP was averaged and the average value ΔC was set to 100% max response for each plate. Each well was subsequently normalized as a percent of the ΔC control (value/ΔC×100). Normalized data was plotted in GraphPad PRISM v.5.0.

PAR4 [3] = target: T1, PAR4; assay: Flow cytometry: PAR4-AP mediated GPIIbIIIa activation (PAC-1 binding) in washed platelets; assay type: cell-based; conditions: for IC50: 200 µM PAR4-AP, compound 5 min before, normalized to DMSO control, Figure 4; for Extent of antagonism of PAR4 mediated platelet response / GPIIbIIIa activation: maximal (200 µM) PAR4-AP, up to 10 µM compound
Procedure: as §1, with “Platelet activity was quenched by the addition ice cold 1.5% paraformaldehyde followed by dilution in 1X phosphate buffered saline.” left out
as §2

PAR1 [4] = target: T2, PAR1 (Homo sapiens, UniProt P25116); assay: Flow cytometry: PAR1-AP mediated GPIIbIIIa activation (PAC-1 binding) in washed platelets; assay type: cell-based; conditions: 20 µM PAR1-AP
T2 construct: Human platelets express both PAR1 and PAR4; endogenous in cells; host or cells: washed human platelets from volunteer donors
T2 sequence (P25116 22-425): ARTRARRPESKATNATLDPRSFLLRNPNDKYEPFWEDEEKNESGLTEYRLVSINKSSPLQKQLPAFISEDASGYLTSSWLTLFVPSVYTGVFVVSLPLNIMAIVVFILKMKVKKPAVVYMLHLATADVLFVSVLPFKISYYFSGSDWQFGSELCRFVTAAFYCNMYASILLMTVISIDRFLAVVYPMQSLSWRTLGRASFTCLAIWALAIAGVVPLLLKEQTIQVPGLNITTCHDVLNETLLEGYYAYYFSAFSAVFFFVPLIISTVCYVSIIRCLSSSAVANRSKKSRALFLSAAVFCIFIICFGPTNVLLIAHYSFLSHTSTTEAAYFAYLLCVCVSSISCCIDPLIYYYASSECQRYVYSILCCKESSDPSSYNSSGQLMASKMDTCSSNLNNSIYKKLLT
Procedure: as §1, with “Platelet activity was quenched by the addition ice cold 1.5% paraformaldehyde followed by dilution in 1X phosphate buffered saline.” left out
as §2

PAR4 [5] = target: T1, PAR4; assay: PAR4-AP mediated platelet aggregation (light transmittance); assay type: cell-based; conditions: 200 µM PAR4-AP; compound 10 min before; Figure 6
Procedure: (§3) Briefly, washed human platelets were prepared to a final concentration of 2.0×10^8 platelets/mL in Tyrode’s buffer containing 0.1% BSA. Compounds or DMSO control were added 10 minutes prior to stimulation with either PAR1-AP or PAR4-AP. The final DMSO concentration was 0.1%. Light transmittance was recorded by a Chrono-Log Model 700 Aggregometer.
(§4) The percent of light transmitted as reported by the aggregometer was recorded in GraphPad PRISM v.5.0. 100% light transmission signifies full platelet aggregation.

PAR1 [6] = target: T2, PAR1; assay: PAR1-AP mediated platelet aggregation (light transmittance); assay type: cell-based; conditions: 20 µM PAR1-AP; compound 10 min before; Figure 6
Procedure: as §3, §4

PAR4 [7] = target: T1, PAR4; assay: Flow cytometry: PAR4-AP mediated P-selectin expression (anti-CD62P binding) in washed platelets; assay type: cell-based
Procedure: as §1, with “Platelet activity was quenched by the addition ice cold 1.5% paraformaldehyde followed by dilution in 1X phosphate buffered saline.” left out
as §2

PAR4 [8] = target: T1, PAR4; parameters: method as in PMID 12083482; conditions: cited from earlier work
[9] = 1 µM compound + 10 µM RWJ-56110, 10 nM thrombin

| SMILES | Emax at 10 µM (PAR4 [2]) [%] | IC50 (PAR4 [3]) [nM] | Extent of antagonism of PAR4 mediated platelet response / GPIIbIIIa activation (PAR4 [3]) | Reduction of thrombin mediated GPIIbIIIa activation in combination with RWJ-56110 [1, 9] [%] | Inhibition of PAR4 mediated platelet aggregation (PAR4 [5]) | Addition of the effect of RWJ-56110 on thrombin and the effect of the compound on PAR1-AP [1] [%] | other results |
| --- | --- | --- | --- | --- | --- | --- | --- |
| NCC[C@H](NC(=O)[C@H](Cc1ccc(F)c(F)c1)NC(=O)Nc1ccc2c(CN3CCCC3)cn(Cc3c(Cl)cccc3Cl)c2c1)C(=O)NCc1ccccc1 [RWJ-56110, reference compound] |  |  |  |  |  |  | Inhibition of thrombin mediated GPIIbIIIa activation, compound alone ([1]; 10 µM RWJ-56110 alone, 10 nM thrombin): 18.4±5.4% |
| CCOC(=O)c1ccc(-c2cn(Cc3ccccc3)c3ncccc23)cc1 [Compound 5] | < 50 | 170 ± 1 | fully antagonize | 17±2 | significantly inhibit PAR4 |  | Reduction of PAR1 mediated GPIIbIIIa activation (PAR1 [4]; 1 µM compound): 7.2±1.4%; Inhibition of PAR1 mediated platelet aggregation (PAR1 [6]): not PAR1 mediated platelet aggregation |
| CCOC(=O)c1ccc(-c2cn(Cc3ccccn3)c3ccccc23)cc1 [Compound 3] | < 50 | 1000 ± 1100 | fully antagonize |  | non-significantly |  | Reduction of PAR1 mediated GPIIbIIIa activation (PAR1 [4]; 3.16 µM compound): 7.2±1.3%; Reduction of thrombin mediated GPIIbIIIa activation in combination with RWJ-56110 ([1]; 3.16 µM compound + 10 µM RWJ-56110, 10 nM thrombin): 14±2% |
| CCOC(=O)c1ccc(-c2cn(Cc3ccccc3)c3ccccc23)cc1 [Compound 1] |  |  |  | 37.1±6.4 |  | 32.5±6.1 |  |
| CCOC(=O)c1ccc(-c2nn(Cc3ccccc3)c3ccccc23)cc1 [YD-3, ethyl 4-(1-benzyl-1H-indazol-3-yl)benzoate, reference compound] |  | 26 ± 1 |  | 42.9±9.7 |  | 26.8±6.0 | Inhibition time course of PAR4-AP calcium mobilization (PAR4 [2]; 10 µM YD-3, increasing treatment times, then 80 µM PAR4-AP, Figure 2B): significant inhibition by YD-3 occurred as early as 1 minute; IC50 (PAR4 [7]; 200 µM PAR4-AP, from raw mean fluorescent intensity values, Figure S4): 16.4 ± 1.1 nM; Mechanism of action against PAR4 (shift of PAR4-AP concentration response curve) (PAR4 [7]; P-selectin expression, twelve point PAR4-AP CRCs with increasing antagonist, Figure 7): competitive mechanism of action; Mechanism of action against PAR4 by platelet aggregation (PAR4 [8]): competitive in nature |
